In US20160166560A1, “Urea Compounds and Their Use as FAAH Enzyme Inhibitors” (BIAL-PORTELA & Cª, S.A., priority 2013, published 2016):
Counter-ions that a name gives are not always drawn.

Assays:
[1] = tested on: CYPs; assay: CYPs metabolic stability assay in HLM (human liver microsomes); type: in vitro ADME; settings: HLM 1 mg/ml protein, compound 5 μM, 60 min, 37° C.; for Control (% remain): absence of NADPH; for CYP+ (% remain): with NADPH 1 mM
Procedure: Stability of the test compounds was performed in HLM (human liver microsomes) in the presence and in the absence of NADPH.
The stability was measured using the incubation mixture (100 μl total volume) contained 1 mg/ml total protein, MgCl2 5 mM and 50 mM K-phosphate buffer. Samples were incubated in the presence and in the absence of NADPH 1 mM. Reactions were pre-incubated 5 min and the reaction initiated with the compound under test (at a concentration of 5 μM). Samples were incubated for 60 min in a shaking water bath at 37° C. The reaction was stopped by adding 100 μl of acetonitrile. Samples were then centrifuged, filtered and supematant injected in HLPC-MSD. Test compounds were dissolved in DMSO and the final concentration of DMSO in the reaction was below 0.5% (v/v). At T0 acetonitrile was added before adding the compound. All experiments were performed with samples in duplicate.

[2] = Solubility assay in purified water; type: physicochemical; settings: pH 5.7, thermodynamic from solid; purified water pH=5.6-5.8, stirring 2 h, room temperature, HPLC
Procedure: A saturated solution was prepared by adding the test compound in excess to 1 mL of purified water (pH=5.6-5.8) followed by stirring of the mixture for 2 h at room temperature. Thereupon, the un-dissolved material was removed by filtration and the amount of test compound in the filtrate was quantified by HPLC using a calibration curve.

[3] = target: T1, FAAH (Mus musculus, UniProt O08914); assay: In vitro/ex vivo FAAH activity determination in brain after intra-tracheal instillation; set-up: Liver and brain fragments were removed and processed for enzymatic activity determination; from tissue; species or system male NMRI mice; settings: remaining enzymatic activity vs controls
T1 sequence (O08914 1-579): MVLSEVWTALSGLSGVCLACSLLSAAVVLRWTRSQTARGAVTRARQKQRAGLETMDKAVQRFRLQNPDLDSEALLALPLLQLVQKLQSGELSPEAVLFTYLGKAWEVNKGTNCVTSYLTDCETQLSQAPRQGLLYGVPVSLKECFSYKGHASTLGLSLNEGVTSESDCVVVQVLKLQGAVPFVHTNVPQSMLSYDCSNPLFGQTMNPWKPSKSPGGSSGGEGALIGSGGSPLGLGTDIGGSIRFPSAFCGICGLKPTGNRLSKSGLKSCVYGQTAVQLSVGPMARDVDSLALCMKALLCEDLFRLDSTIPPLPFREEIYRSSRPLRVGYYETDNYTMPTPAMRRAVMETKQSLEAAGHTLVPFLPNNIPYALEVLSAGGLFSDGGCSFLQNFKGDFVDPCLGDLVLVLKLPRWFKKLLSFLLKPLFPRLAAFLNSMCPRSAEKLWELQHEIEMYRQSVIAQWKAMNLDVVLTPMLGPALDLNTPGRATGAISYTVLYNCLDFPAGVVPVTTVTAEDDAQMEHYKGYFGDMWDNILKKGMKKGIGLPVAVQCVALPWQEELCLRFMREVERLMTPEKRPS
Procedure: (§1) To evaluate the selectivity of test compounds in inhibiting FAAH activity, male NMRI mice were administrated following instillation with 1 mg/kg compound and were sacrificed after 8 h treatment. Liver and brain fragments were removed and processed for enzymatic activity determination.
(§2) FAAH activity was measured as the amount of ^3H-ethanolamine formed, by liquid scintillation counting, from the hydrolysis of the substrate anandamide (AEA, labeled with ^3H on the ethanolamine part of the molecule). The percentage of remaining enzymatic activity was calculated in respect to controls and after blank subtraction. Therefore, a low value for the test compounds indicates a strong inhibitor.
(§3) Male NMRI mice (body weight range: 25-35 g) were obtained from Harlan Laboratories (Barcelona, Spain). Animals were kept 10 per cage, under controlled environmental conditions (12 hr light [8 am]/12 hr dark [8 pm]cycle; room temperature 22±1° C.). Food and tap water were allowed ad libitum. Animals were habituated to the animal facilities at least for a week prior to experiments. The experiments were all carried out during daylight hours.
(§4) Animals were fasted overnight before administration of compounds. […] After administration the animals were given atipamezole (1 mg/kg) to reverse the sedative and analgesic effects induced by the anaesthesia.
(§5) Fifteen minutes before sacrifice, animals were anesthetized with pentobarbital 60 mg/kg administrated intra-peritoneally. The brain (without cerebellum) and a fragment of liver were collected into plastic vials containing membrane buffer (3 mM MgCl2, 1 mM EDTA, 50 mM Tris HCl, pH 7.4). Glass beads (2.5 mm BioSpec Products, Bartlesville, Okla., USA) were added to the vials containing the brain and liver tissues. Tissues were stored at −20° C. until analysis.
(§6) Anandamide [ethanolamine-1-^3H-] was obtained from American Radiochemicals—with a specific activity of 60 Ci/mmol. All other reagents were obtained from Sigma-Aldrich. Optiphase Supermix was obtained from Perkin Elmer.
(§7) Brain and liver tissues were thawed and homogenized in 10 volumes of membrane buffer (3 mM MgCl2, 1 mM EDTA, 50 mM Tris HCl, pH 7.4) with homogenizer Precellys 24 Dual Tissue Homogenizer (Bertin Technologies) for 2 cycles of 5 sec (5000 rpm).
(§8) Total protein in the tissue homogenates was determined with the BioRad Protein Assay (BioRad) using a standard curve of BSA ([…]). Tissue homogenates were diluted to appropriate concentration for enzymatic determination in assay buffer (1 mM EDTA, 10 mM Tris HCl, pH 7.6).
(§9) Reaction mix (total volume 200 μL) contained 2 μM AEA (2 μM AEA+5 nM ^3H-AEA), 0.1% fatty acid free BSA, 15 μg (brain) or 5 μg (liver) protein, in assay buffer (1 mM EDTA, 10 mM Tris pH 7.6).
(§10) The test compound was used at a level of 1 mg/kg protein. After 15 minutes pre-incubation at 37° C. of the protein sample, reaction was started by the addition of the substrate solution (cold AEA+radiolabelled AEA+BSA). Reaction was carried out for 12 minutes for brain and liver tissues. Reaction was terminated by addition of 400 μL chloroform:methanol (1:1, v/v) solution. Reaction samples were vortex twice, left on ice for 5 minutes and then centrifuged in the microfuge for 7 minutes, 7000 rpm. 200 μL of the obtained supernatants were added to […] Optiphase Supermix scintillation cocktail previously distributed in 24-well plates.
(§11) Counts per minute (cpm) were determined in a Microbeta TriLux scintillation counter. In each assay blank samples (without protein) were prepared.

[4] = target: T1, FAAH; assay: In vitro/ex vivo FAAH activity determination in liver after intra-tracheal instillation; set-up: Liver and brain fragments were removed and processed for enzymatic activity determination; from tissue; host or cells: mouse liver fragment homogenate; species or system male NMRI mice; settings: remaining enzymatic activity vs controls
Procedure: as §1, §2, §3, §4, §5, §6, §7, §8, §9, §10, §11

[5] = 1 mg/kg intra-tracheal instillation, sacrificed after 8 h
[6] = 1 mg/kg intra-tracheal instillation, sacrificed after 8 h, methanesulfonate, 1 mg/kg
[7] = tested at 0.1 mg/kg rather than 1 mg/kg

| Control (% remain) [1] | CYP+ (% remain) [1] | solubility at 2 h [2] | FAAH Activity - Brain itc (% C) [3, 5] | FAAH Activity - Liver itc (% C) [4, 5] | Control (% remain) ([1]; methanesulfonate) | CYP+ (% remain) ([1]; methanesulfonate) | FAAH Activity - Brain itc (% C) [3, 6] | FAAH Activity - Liver itc (% C) [4, 6] | FAAH Activity - Brain itc (% C) [3, 7] | FAAH Activity - Liver itc (% C) [4, 7] | Compound |
| --- | --- | --- | --- | --- | --- | --- | --- | --- | --- | --- | --- |
| 103.5 % remain | 17.5 % remain | 7.7 mg/mL | 96.0 % C | 5.3 % C | – | – | – | – | – | – | COc1cccc(CN2CCC(N(C)C(=O)n3cnc(-c4cccc(NS(N)(=O)=O)c4)c3)CC2)c1 [Example 3, N-(1-(3-methoxybenzyl)piperidin-4-yl)-N-methyl-4-(3-(sulfamoylamino)phenyl)-1H-imidazole-1-carboxamide hydrochloride] |
| 105.4 % remain | 9.1 % remain | > 14.7 mg/mL | 78.7 % C | 3.3 % C | – | – | – | – | – | – | COc1ccccc1N1CCC(N(C)C(=O)n2cnc(-c3cccc(C(N)=O)c3)c2)CC1 [Example 34, 4-(3-carbamoylphenyl)-N-(1-(2-methoxyphenyl)piperidin-4-yl)-N-methyl-1 H-imidazole-1-carboxamide hydrochloride] |
| 112.2 % remain | 70.4 % remain | > 14.9 mg/mL | 102 % C | 3.4 % C | – | – | – | – | – | – | COc1ccc(CN2CCC(N(C)C(=O)n3cnc(-c4cccc(C(N)=O)c4)c3)CC2)cc1 [Example 33, 4-(3-carbamoylphenyl)-N-(1-(4-methoxybenzyl)piperidin-4-yl)-N-methyl-1H-imidazole-1-carboxamide hydrochloride] |
| – | – | > 16 mg/mL | 82.1 % C | 11.5 % C | – | – | – | – | – | – | COc1cccc(CN2CCC(N(C)C(=O)n3cnc(-c4cccc(NS(N)(=O)=O)c4)c3)CC2)c1.CS(=O)(=O)O [Example 23, N-(1-(3-methoxybenzyl)piperidin-4-yl)-N-methyl-4-(3-(sulfamoylamino)phenyl)-1H-imidazole-1-carboxamide methanesulfonate] |
| 73.8 % remain | 81.0 % remain | 10.2 mg/mL | 96.6 % C | 4.3 % C | – | – | – | – | – | – | CN(C(=O)n1cnc(-c2cccc(C(N)=O)c2)c1)C1CCN(c2ccc(O)cc2)CC1 [Example 35, 4-(3-carbamoylphenyl)-N-(1-(4-hydroxyphenyl)piperidin-4-yl)-N-methyl-1H-imidazole-1-carboxamide hydrochloride] |
| – | – | 4.3 mg/mL | 92.4 % C | 8.2 % C | – | – | – | – | – | – | CN(C(=O)n1cnc(-c2cccc(NC(N)=O)c2)c1)C1CCN(Cc2ccccc2)CC1.O=C(O)/C=C\C(=O)O [Example 21, N-(1-benzylpiperidin-4-yl)-N-methyl-4-(3-ureidophenyl)-1H-imidazole-1-carboxamide maleate] |
| 91.5 % remain | 76.2 % remain | – | 92.6 % C | 5.7 % C | – | – | – | – | – | – | CN(C(=O)n1cnc(-c2cccc(NS(C)(=O)=O)c2)c1)C1CCN(c2ccc(O)cc2)CC1 [Example 24, N-(1-(4-hydroxyphenyl)piperidin-4-yl)-N-methyl-4-(3-(methylsulfonamido)phenyl)-1H-imidazole-1-carboxamide hydrochloride] |
| 100 % remain | 11.2 % remain | – | 98.7 % C | 7.2 % C | – | – | – | – | – | – | COc1cccc(CN2CCC(N(C)C(=O)n3cnc(-c4cccc(NS(C)(=O)=O)c4)c3)CC2)c1 [Example 4, N-(1-(3-methoxybenzyl)piperidin-4-yl)-N-methyl-4-(3-(methylsulfonamido)phenyl)-1H-imidazole-1-carboxamide hydrochloride] |
| – | – | – | – | – | 96.9 % remain | 26.7 % remain | 84.3 % C | 13.9 % C | – | – | COc1cc(CN2CCC(N(C)C(=O)n3cnc(-c4ccc(OS(N)(=O)=O)cc4)c3)CC2)cc(OC)c1 [Example 27, 4-(1-((1-(3,5-dimethoxybenzyl)piperidin-4-yl)(methyl)carbamoyl)-1H-imidazol-4-yl)phenyl sulfamate methanesulfonate] |
| 88.7 % remain | 12.0 % remain | – | 82.1 % C | 1.7 % C | – | – | – | – | – | – | CN(C(=O)n1cnc(-c2cccc(OS(N)(=O)=O)c2)c1)C1CCN(c2ccccc2)CC1 [Example 6, 3-(1-(methyl(1-phenylpiperidin-4-yl)carbamoyl)-1H-imidazol-4-yl)phenyl sulfamate hydrochloride] |
| 111.7 % remain | 18.5 % remain | – | – | – | – | – | – | – | 87.7 % C | 13.1 % C | COc1cc(CN2CCC(N(C)C(=O)n3cnc(-c4cccc(C(N)=O)c4)c3)CC2)ccc1F [Example 31, 4-(3-carbamoylphenyl)-N-(1-(4-fluoro-3-methoxybenzyl)piperidin-4-yl)-N-methyl-1H-imidazole-1-carboxamide hydrochloride] |
